Each structure is given as a SMILES string. pIC50: −log10 of the molar value. Converted amounts (≈) assume the structure as drawn.

The subject of one test is Staphylococcus aureus. As to the kind of experiment: Antimicrobial activity against Staphylococcus aureus CGMCC1.1361 after 24 hrs by modified microdilution method. To be noted: CGMCC1.1361, 24 h. It counts as functional. (In general: In broth dilution the organism is exposed to a series of concentrations in liquid medium.)
The test system of a further test is Bacillus subtilis. As to the kind of experiment: Antimicrobial activity against Bacillus subtilis CGMCC1.1162 after 24 hrs by modified microdilution method. Format: functional. To be noted: CGMCC1.1162, 24 h.
The test system of the next test is Pseudomonas fluorescens. As to the kind of experiment: Antimicrobial activity against Pseudomonas fluorescens CGMCC1.1828 after 24 hrs by modified microdilution method. To be noted: CGMCC1.1828, 24 h. Format: functional.
The test system of another test is Escherichia coli. As to the kind of experiment: Antimicrobial activity against Escherichia coli CGMCC1.1571 after 24 hrs by modified microdilution method. Format: functional. To be noted: CGMCC1.1571, 24 h.
The subject of the next test is Candida albicans. As to the kind of experiment: Antimicrobial activity against Candida albicans CGMCC2.2086 after 48 hrs by modified microdilution method. Format: functional. To be noted: CGMCC2.2086, 48 h.
In the next test the test system is Aspergillus niger. As to the kind of experiment: Antimicrobial activity against Aspergillus niger CGMCC3.316 after 48 hrs by modified microdilution method. Format: functional. To be noted: CGMCC3.316, 48 h.
The next test has as its system HepG2. The test can be described thus: Cytotoxicity against human HepG2 cells assessed as cell survival after 48 hrs by MTT assay. Format: functional, cell-based. To be noted: HepG2, 48 h. Background: Tetrazolium assays rely on reduction of a dye to a coloured formazan, in cell work by metabolically active cells.
Another test has as its system Candida tropicalis. As to the kind of experiment: Antimicrobial activity against Candida tropicalis CGMCC2.3967 after 48 hrs by modified microdilution method. To be noted: CGMCC2.3967, 48 h. It counts as functional.
Test [1] is described as follows: Cytotoxicity against human […] cells assessed as cell survival after 48 hrs by MTT assay. Format: functional, cell-based.
Test [2] is described as follows: Cytotoxicity against human LO2 cells assessed as cell survival after 48 hrs by MTT assay. Format: cell-based. To be noted: L02, 48 h.

The MIC is the least concentration at which growth counts as inhibited. In general, pIC50 refers to −log10 of the IC50, conventionally taken in molar units. Regarding `CCOc1ccc2[nH]c3c(c2c1)C[C@]1(C)[C@H]2CC=C4[C@@H]5[C@@H](C)[C@H](C)CC[C@]5(C(=O)OC)CC[C@@]4(C)[C@]2(C)CC[C@H]1C3(C)C`, the MIC in the test on Staphylococcus aureus is 31.2 µg/mL (≈ 53.3 µM); against Bacillus subtilis, 31.2 µg/mL (≈ 53.3 µM); in the test with Pseudomonas fluorescens, 62.5 µg/mL (≈ 107 µM); in the test on Escherichia coli, above 100 µg/mL; against Candida albicans, above 100 µg/mL; against Aspergillus niger, above 100 µg/mL. In the test with Candida tropicalis, this compound gave an MIC above 100 µg/mL. Also, the pIC50 (in the test on HepG2; in test [1]) was below 4.00 throughout.
On to `Cc1ccc2[nH]c3c(c2c1)C[C@]1(C)[C@H]2CC=C4[C@@H]5[C@@H](C)[C@H](C)CC[C@]5(C(=O)O)CC[C@@]4(C)[C@]2(C)CC[C@H]1C3(C)C`, for which the MIC with Staphylococcus aureus was 62.5 µg/mL (≈ 115 µM); in the test on Bacillus subtilis it was 62.5 µg/mL (≈ 115 µM); against Pseudomonas fluorescens, 62.5 µg/mL (≈ 115 µM); in the test with Escherichia coli it was 31.2 µg/mL (≈ 57.6 µM); against Candida albicans it was above 100 µg/mL; against Aspergillus niger it was above 100 µg/mL. In the test on Candida tropicalis, this compound returned an MIC above 100 µg/mL. Further, the pIC50 in the test with HepG2 is 4.77; in test [1], 4.86.
Take `C[C@H]1[C@H](C)CC[C@]2(C(=O)NCCCN(C)C)CC[C@]3(C)C(=CC[C@@H]4[C@@]5(C)Cc6c([nH]c7ccccc67)C(C)(C)[C@@H]5CC[C@]43C)[C@H]12`: the MIC in the test on Staphylococcus aureus came out at 15.6 µg/mL (≈ 25.5 µM); against Bacillus subtilis, 7.8 µg/mL (≈ 12.7 µM); against Pseudomonas fluorescens, 31.2 µg/mL (≈ 51 µM); against Escherichia coli, 15.6 µg/mL (≈ 25.5 µM); against Candida albicans, 31.2 µg/mL (≈ 51 µM); against Aspergillus niger it was 31.2 µg/mL (≈ 51 µM). This compound came in with an MIC in the test with Candida tropicalis of 62.5 µg/mL (≈ 102 µM). Moreover, the results for the pIC50 (in the test with HepG2; in test [1]) were 5.56 and 5.67, respectively.
`C[C@H]1[C@H](C)CC[C@]2(C(=O)O)CC[C@]3(C)C(=CC[C@@H]4[C@@]5(C)Cc6c([nH]c7ccc(F)cc67)C(C)(C)[C@@H]5CC[C@]43C)[C@H]12`: the MIC was found to be 15.6 µg/mL (≈ 28.6 µM) in the test with Staphylococcus aureus; 15.6 µg/mL (≈ 28.6 µM) in the test on Bacillus subtilis; 31.2 µg/mL (≈ 57.2 µM) in the test on Pseudomonas fluorescens; 15.6 µg/mL (≈ 28.6 µM) in the test with Escherichia coli; 62.5 µg/mL (≈ 115 µM) against Candida albicans; 62.5 µg/mL (≈ 115 µM) against Aspergillus niger. In the test on Candida tropicalis, this compound gave an MIC above 100 µg/mL. Also, the pIC50 was 4.82 in the test on HepG2 and 4.79 in [1].
Regarding `Cc1ccc2[nH]c3c(c2c1)C[C@]1(C)[C@H]2CC=C4[C@@H]5[C@@H](C)[C@H](C)CC[C@]5(C(=O)NCCCN(C)C)CC[C@@]4(C)[C@]2(C)CC[C@H]1C3(C)C`, the MIC with Staphylococcus aureus was 31.2 µg/mL (≈ 49.8 µM); with Bacillus subtilis, 15.6 µg/mL (≈ 24.9 µM); against Pseudomonas fluorescens, 31.2 µg/mL (≈ 49.8 µM); in the test with Escherichia coli, 31.2 µg/mL (≈ 49.8 µM); against Candida albicans, above 100 µg/mL; against Aspergillus niger, 62.5 µg/mL (≈ 99.8 µM). In the test on Candida tropicalis, this compound gave an MIC above 100 µg/mL. The negative-log IC50 (pIC50) with HepG2 is 5.90; in [1], 5.97; in test [2], 5.24.
Consider `COC(=O)[C@]12CC[C@@H](C)[C@H](C)[C@H]1C1=CC[C@@H]3[C@@]4(C)Cc5c([nH]c6ccc(Cl)cc56)C(C)(C)[C@@H]4CC[C@@]3(C)[C@]1(C)CC2`, for which the MIC with Staphylococcus aureus is 62.5 µg/mL (≈ 108 µM); in the test on Bacillus subtilis, 31.2 µg/mL (≈ 54.1 µM); in the test with Pseudomonas fluorescens, 62.5 µg/mL (≈ 108 µM); against Escherichia coli, above 100 µg/mL; in the test on Candida albicans, above 100 µg/mL; with Aspergillus niger it was 62.5 µg/mL (≈ 108 µM). For the same compound, in the test with Candida tropicalis, the MIC is above 100 µg/mL. The pIC50 (in the test with HepG2; in test [1]) was below 4.00 in each case.
For `C[C@H]1[C@H](C)CC[C@]2(C(=O)O)CC[C@]3(C)C(=CC[C@@H]4[C@@]5(C)Cc6c([nH]c7ccc(Br)cc67)C(C)(C)[C@@H]5CC[C@]43C)[C@H]12`, the MIC stood at 62.5 µg/mL (≈ 103 µM) in the test on Staphylococcus aureus; 31.2 µg/mL (≈ 51.4 µM) against Bacillus subtilis; 62.5 µg/mL (≈ 103 µM) in the test with Pseudomonas fluorescens; 62.5 µg/mL (≈ 103 µM) against Escherichia coli; 62.5 µg/mL (≈ 103 µM) in the test on Candida albicans; 31.2 µg/mL (≈ 51.4 µM) in the test on Aspergillus niger. Moreover, in the test with Candida tropicalis, the lowest concentration to inhibit growth (MIC) was 62.5 µg/mL (≈ 103 µM). The pIC50 in the test with HepG2 was 4.42; in test [1] it was 4.20.
For the compound `C[C@H]1[C@H](C)CC[C@]2(C(=O)O)CC[C@]3(C)C(=CC[C@@H]4[C@@]5(C)Cc6c([nH]c7ccccc67)C(C)(C)[C@@H]5CC[C@]43C)[C@H]12`, the MIC against Staphylococcus aureus is 31.2 µg/mL (≈ 59.1 µM); with Bacillus subtilis, 15.6 µg/mL (≈ 29.6 µM); against Pseudomonas fluorescens, 15.6 µg/mL (≈ 29.6 µM); against Escherichia coli, 15.6 µg/mL (≈ 29.6 µM); with Candida albicans, above 100 µg/mL; against Aspergillus niger, above 100 µg/mL. Further, the MIC in the test with Candida tropicalis was above 100 µg/mL. Moreover, the pIC50 with HepG2 was 4.59; in [1], 4.39.
Turning to `CCOc1ccc2[nH]c3c(c2c1)C[C@]1(C)[C@H]2CC=C4[C@@H]5[C@@H](C)[C@H](C)CC[C@]5(C(=O)O)CC[C@@]4(C)[C@]2(C)CC[C@H]1C3(C)C`, the MIC was 62.5 µg/mL (≈ 109 µM) against Staphylococcus aureus; 62.5 µg/mL (≈ 109 µM) in the test on Bacillus subtilis; 62.5 µg/mL (≈ 109 µM) against Pseudomonas fluorescens; 62.5 µg/mL (≈ 109 µM) in the test on Escherichia coli; above 100 µg/mL against Candida albicans; above 100 µg/mL against Aspergillus niger. The MIC in the test on Candida tropicalis is above 100 µg/mL. The pIC50 in the test with HepG2 is 4.48; in test [1], 4.61.

The values above are taken from ChEMBL document CHEMBL3351749, “Synthesis, in vitro antimicrobial and cytotoxic activities of new carbazole derivatives of ursolic acid” (Bioorg Med Chem Lett, 2015).
